The subject of this data set is rodent carcinogenicity bioassays, tumor incidence. Kind of data set: CCRIS carcinogenicity studies. In a few lines: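 NCI-built, expert-reviewed records of carcinogenicity and related test outcomes (mutagenicity, tumor promotion/inhibition) compiled from published and report sources, historical span 1985-2011, not updated.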

Active and inactive are the calls of the source. How the calls were made is not given here.

As to `COC(=O)C1=CCCN(N=O)C1`, the carcinogen call (Species: RAT, Strain/Sex: F344/MALE, Route: ORAL, Dose: 0, 20 PPM IN DRINKING WATER FOR DURATION OF STUDY (TOTAL DOSE: 0; 4.1 MMOL/KG) (STUDY DURATION: 128 WK), Dose: 0, 20 PPM IN DRINKING WATER FOR DURATION OF STUDY (TOTAL DOSE: 0; 4.1 MMOL/KG) (STUDY DURATION: 128 WK), Tumor Site: Type of Lesion: EXOCRINE PANCREAS: ACINAR ADENOMA) was “active; positive”.

For `CN(C)c1nc(=O)n(C2CCCCC2)c(=O)n1C`, the carcinogen call reads like this: (Species: DOG, Strain/Sex: BEAGLE/FEMALE, Route: ORAL, Dose: 0, 200, 1000 PPM IN DIET FOR 90 D OR 5000 PPM FOR 1 WK, THEN 2500 PPM FOR 4 D IN WK 2 THEN 3750 PPM FOR 3 D FOLLOWED BY, Dose: 0, 200, 1000 PPM IN DIET FOR 90 D OR 5000 PPM FOR 1 WK, THEN 2500 PPM FOR 4 D IN WK 2 THEN 3750 PPM FOR 3 D FOLLOWED BY) “inactive; negative”; (Species: DOG, Strain/Sex: BEAGLE/MALE, Route: ORAL, Dose: 0, 200, 1000 PPM IN DIET FOR 90 D OR 5000 PPM FOR 1 WK, THEN 2500 PPM FOR 4 D IN WK 2 THEN 3750 PPM FOR 3 D FOLLOWED BY, Dose: 0, 200, 1000 PPM IN DIET FOR 90 D OR 5000 PPM FOR 1 WK, THEN 2500 PPM FOR 4 D IN WK 2 THEN 3750 PPM FOR 3 D FOLLOWED BY) “inactive; negative”; (Species: MOUSE, Strain/Sex: CD-1/FEMALE, Route: ORAL, Dose: 0, 200, 2500, 10000 PPM IN DIET FOR 2 YR (STUDY DURATION: 2 YR), Dose: 0, 200, 2500, 10000 PPM IN DIET FOR 2 YR (STUDY DURATION: 2 YR)) “inactive; negative”; (Species: MOUSE, Strain/Sex: CD-1/MALE, Route: ORAL, Dose: 0, 200, 2500, 10000 PPM IN DIET FOR 2 YR (STUDY DURATION: 2 YR), Dose: 0, 200, 2500, 10000 PPM IN DIET FOR 2 YR (STUDY DURATION: 2 YR)) “inactive; negative”; (Species: RAT, Strain/Sex: CRL-CD/FEMALE, Route: ORAL, Dose: 0, 200, 1000, 2500 PPM IN DIET FOR 2 YR (STUDY DURATION: 2 YR), Dose: 0, 200, 1000, 2500 PPM IN DIET FOR 2 YR (STUDY DURATION: 2 YR)) “inactive; negative”; (Species: RAT, Strain/Sex: CRL-CD/MALE, Route: ORAL, Dose: 0, 200, 1000, 2500 PPM IN DIET FOR 2 YR (STUDY DURATION: 2 YR), Dose: 0, 200, 1000, 2500 PPM IN DIET FOR 2 YR (STUDY DURATION: 2 YR)) “inactive; negative”.

On to `CC1CN(N=O)CC(C)O1` (configuration not stated), for which the carcinogen call runs as follows: (Species: FISH, Strain/Sex: SHASTA RAINBOW TROUT/MALE, FEMALE, Route: ORAL, Dose: 0, 1556 PPM IN DIET FOR 18 MO (STUDY DURATION: 18 MO), Tumor Site: Type of Lesion: LIVER: CARCINOMA, STOMACH: PAPILLOMA) “active; positive”; (Species: HAMSTER, Strain/Sex: EUROPEAN/FEMALE, Route: GAVAGE, Dose: 0, 37 MG/KG 1/WK FOR DURATION OF STUDY (STUDY DURATION: LIFETIME), Tumor Site: Type of Lesion: NASAL CAVITY: TUMOR, TRACHEA: TUMOR, LIVER: HEMANGIOENDOTHELIOMA, Tumor Site: Type of Lesion: NASAL CAVITY: TUMOR, TRACHEA: TUMOR, LIVER: HEMANGIOENDOTHELIOMA) “active; positive”; (Species: HAMSTER, Strain/Sex: EUROPEAN/FEMALE, Route: GAVAGE, Dose: 0, 112 MG/KG 1/WK FOR DURATION OF STUDY (STUDY DURATION: LIFETIME), Tumor Site: Type of Lesion: NASAL CAVITY: TUMOR, TRACHEA: TUMOR, LUNG: TUMOR, Tumor Site: Type of Lesion: NASAL CAVITY: TUMOR, TRACHEA: TUMOR, LUNG: TUMOR) “active; positive”; (Species: HAMSTER, Strain/Sex: EUROPEAN/FEMALE, Route: SUBCUTANEOUS, Dose: 0, 85 MG/KG 1/WK FOR DURATION OF STUDY (STUDY DURATION: LIFETIME), Tumor Site: Type of Lesion: NASAL CAVITY: TUMOR, LARYNX: TUMOR, TRACHEA: TUMOR, LUNG: TUMOR, Tumor Site: Type of Lesion: NASAL CAVITY: TUMOR, LARYNX: TUMOR, TRACHEA: TUMOR, LUNG: TUMOR) “active; positive”; (Species: HAMSTER, Strain/Sex: EUROPEAN/MALE, Route: GAVAGE, Dose: 0, 37 MG/KG 1/WK FOR DURATION OF STUDY (STUDY DURATION: LIFETIME), Tumor Site: Type of Lesion: NASAL CAVITY: TUMOR, LIVER: HEMANGIOENDOTHELIOMA) “active; positive”; (Species: HAMSTER, Strain/Sex: EUROPEAN/MALE, Route: GAVAGE, Dose: 0, 112 MG/KG 1/WK FOR DURATION OF STUDY (STUDY DURATION: LIFETIME), Tumor Site: Type of Lesion: NASAL CAVITY: TUMOR, LUNG: TUMOR) “active; positive”. The carcinogen call by setting is: (Species: HAMSTER, Strain/Sex: EUROPEAN/MALE, Route: SUBCUTANEOUS, Dose: 0, 85 MG/KG 1/WK FOR DURATION OF STUDY (STUDY DURATION: LIFETIME), Tumor Site: Type of Lesion: NASAL CAVITY: TUMOR, LARYNX: TUMOR, TRACHEA: TUMOR, LUNG: TUMOR, Tumor Site: Type of Lesion: NASAL CAVITY: TUMOR, LARYNX: TUMOR, TRACHEA: TUMOR, LUNG: TUMOR) “active; positive”; (Species: HAMSTER, Strain/Sex: SYRIAN/MALE,FEMALE, Route: GAVAGE, Dose: 9-74 MG/KG 1/WK FOR LIFE, Tumor Site: Type of Lesion: PANCREAS, TRACHEA, LUNG, LIVER, NASAL CAVITY, FORESTOMACH, GALL BLADDER, LARYNX, Tumor Site: Type of Lesion: PANCREAS, TRACHEA, LUNG, LIVER, NASAL CAVITY, FORESTOMACH, GALL BLADDER, LARYNX) “active; positive”; (Species: HAMSTER, Strain/Sex: SYRIAN/MALE,FEMALE, Route: SUBCUTANEOUS, Dose: 8, 16, 32 MG/KG 1/WK FOR LIFE, Dose: 8, 16, 32 MG/KG 1/WK FOR LIFE, Tumor Site: Type of Lesion: NASAL CAVITY, LARYNX, TRACHEA, LUNG, FORESTOMACH, PANCREAS, VAGINA, Tumor Site: Type of Lesion: NASAL CAVITY, LARYNX, TRACHEA, LUNG, FORESTOMACH, PANCREAS, VAGINA) “active; positive”; (Species: RAT, Strain/Sex: F344/FEMALE, Route: INTRAVESICULAR, Dose: 0, 6 MG IN 0.2 ML ETHANOL: DEIONIZED WATER (1:3) 2/WK FOR 18 WK (TOTAL DOSE 1.5 MMOL) (STUDY DURATION: LIFESPAN), Tumor Site: Type of Lesion: ESOPHAGUS: TUMOR) “active; positive”; (Species: RAT, Strain/Sex: F344/FEMALE, Route: ORAL, Dose: 20 MG/L IN DRINKING WATER FOR 30 WK, Tumor Site: Type of Lesion: ESOPHAGUS: PAPILLOMA, CARCINOMA, TONGUE: PAPILLOMA, CARCINOMA) “active; positive”; (Species: RAT, Strain/Sex: F344/FEMALE, Route: ORAL, Dose: 50 MG/L IN DRINKING WATER FOR 22 WK, Tumor Site: Type of Lesion: ESOPHAGUS: PAPILLOMA, CARCINOMA) “active; positive”. The carcinogen call (Species: RAT, Strain/Sex: SPRAGUE-DAWLEY/MALE,FEMALE, Route: SUBCUTANEOUS, Dose: 0, 1/100, 1/10 OF LD50 1/WK FOR LIFE (STUDY DURATION: LIFETIME), Dose: 0, 1/100, 1/10 OF LD50 1/WK FOR LIFE (STUDY DURATION: LIFETIME), Tumor Site: Type of Lesion: ESOPHAGUS: CARCINOMA) was “active; positive”; the carcinogen call (Species: RAT, Strain/Sex: SPRAGUE-DAWLEY/MALE,FEMALE, Route: SUBCUTANEOUS, Dose: 0, 1/100, 1/10 OF LD50 1/WK FOR LIFE TO RATS WITH ESOPHAGOJEJUNOSTOMY (STUDY DURATION: LIFETIME), Dose: 0, 1/100, 1/10 OF LD50 1/WK FOR LIFE TO RATS WITH ESOPHAGOJEJUNOSTOMY (STUDY DURATION: LIFETIME), Tumor Site: Type of Lesion: ESOPHAGUS: CARCINOMA) is “active; positive”; the carcinogen call (Species: RAT, Strain/Sex: SPRAGUE-DAWLEY/MALE, Route: ORAL, Dose: 50 MG/L IN DRINKING WATER (20 ML/D 5 D/WK) FOR 30 WK, Tumor Site: Type of Lesion: ESOPHAGUS: PAPILLOMA, SQUAMOUS CELL CARCINOMA, NASAL TURBINATES: ADENOCARCINOMA) was “active; positive”.

The values above are taken from PubChem BioAssay AID1259411 (Chemical Carcinogenesis Research Information System (CCRIS), 2018).
